The test system of one data set is human HBV-derived HCC. The experiment in a line: Immunofluorescence on human HBV-derived HCC specimens. The following applies: 5 μM, 15 min. As to the method:
Formalin-fixed specimens of HBV-derived HCC from the bio-bank at the Peking University People's Hospital were used. The specimens were deparaffinized, and antigen retrieval was performed using standard methods. Specimens of HCC and non-tumorous liver were cut in 10 μm sections, and incubated with the ALL*-Cy5.5 peptide reagent at a concentration of 5 μM in 1× PBS for 15 min at RT. The sections were washed 3× with PBS and incubated overnight at 4° C. with a 1:1000 dilution of primary anti-GPC3 antibody (Santa Cruz Biotechnology, 1G12, sc-65443) overnight at 4° C. The sections were washed with PBS 3× and incubated with 1:500 dilution of Alexa Fluor 488-labeled secondary goat […] antibody (Invitrogen) for 1 hour at RT. The sections were fixed with 4% PFA for 10 min. The sections were then mounted with ProLong Gold reagent containing DAPI (Invitrogen). Confocal fluorescence images were collected with DAPI, FITC and Cy5.5 filters. A Pearson's correlation coefficient will be measured to assess co-localization of peptide and antibody binding.

Data set [1] has as its system GPC3 positive tumor (from Hep3B cells). Conditions: mouse, in vivo, iv.
Protocol: Mice bearing HCC xenograft tumor (arrowheads) were i.v. injected with 250 μL of 300 μM near NIR GPC3 targeting peptide ALL*-Cy5.5, scrambled control peptide QLE*-Cy5.5 and unlabeled Cy5.5 free dye alone. ALL*-Cy5.5 was also injected in mice bearing GPC3 negative tumor (from SK Hep-1 cells, arrows) as control of EPR effect. Pre-injection imaging confirmed no autofluorescence was present.
A short description of data set [2]: Histology of vital organs post-peptide administration (acute toxicity). In kind it is in vivo, mice. The following applies: 2 hours post-injection; brain, heart, lung, liver, spleen, kidney, stomach, intestine, cecum, colon. As to the method:
Vital organs were harvested post peptide administration in mice to evaluate acute toxicity of peptide probe with histology observation. Mice bearing human HCC xenograft tumors were sacrificed 2 hours post-injection of ALL*-Cy5.5.

A further data set deals with Hep3B human HCC cells. In words: Confocal microscopy of peptide binding to Hep3B cells. In kind it is cell-based. As to the method:
FIGS. 6-2A-Q show validation of specific peptide binding to cells in vitro. […] The Hep3B versus SK-Hep1 difference was also larger for antibody than QLE (P=2.3×10^−8, 6.0-fold larger). Intensity was measured with 6 replicates per condition and fitted to an ANOVA model with terms for 9 means to log-transformed data. […] We further validated specific peptide binding to GPC3 using siRNA knockdown. […] Q) Quantified fluorescence intensities. The siCL vs siGPC3 difference was 7.4 times bigger for ALL than the same difference for QLE (P=7.8×10^−5), and the difference for antibody was 8.9 times bigger than for QLE (P=2.5×10^−5), by ANOVA on log-transformed data. Results are an average of 6 images collected independently.
On confocal microscopy, it was shown that ALL*-Cy5.5 binds to the surface (arrows) of cells with different levels of GPC3 expression. […] GPC3 is highly overexpressed in Hep3B cell cytosol and membrane while moderately expressed in HepG2 cells. No GPC3 expression is observed in SK-Hep1 cells. Tubulin serves as loading control for either cytosol or membrane fractions loaded.

Ends that are not written are not given here.

On to “ALLANHEELFQT (SEQ ID NO: 1) peptide labeled with Cy5.5 via a GGGSK linker on the C-terminus (ALLANHEELFQTGGGSK-{Cy5.5}) [ALL*-Cy5.5]”, for which the “binding to section of HBV-derived HCC on immunofluorescence” value with human HBV-derived HCC is reported as “strong binding”. The “time of peak uptake/signal post injection” value in data set [1] was found to be 2 h. Besides, the “acute peptide toxicity on histology of vital organs” value in data set [2] is listed as “No signs of acute peptide toxicity”. Further, the “intensity difference Hep3B vs SK-Hep1 relative to the same difference for QLE*” value in the data set with Hep3B human HCC cells (6 replicates, log-transformed data) is given as 8.2 fold. In addition, the “fluorescence intensity from binding to cell surface” value in the data set with Hep3B human HCC cells (Hep3B cells, confocal microscopy) is listed as “strong fluorescence intensity”.
